According to ChEMBL document CHEMBL1133644, “Platelet glycoprotein IIb-IIIa antagonists as prototypical integrin blockers: novel parenteral and potential oral antithrombotic agents” (J Med Chem, 2000):
pIC50, pKd, pKi: −log10 of the molar value. Positions of bridges follow the written chain, without caps; N, C: chain ends. Non-standard residues stand in square brackets, D forms with d. Residues, ends and D or L forms follow the SMILES beside them. NMeR = CN[C@@H](CCCNC(=N)N)C(=O)O; hArg = N=C(N)NCCCC[C@H](N)C(=O)O; 3Amb = NCc1cccc(C(=O)O)c1; dAbu = CC[C@@H](N)C(=O)O; Mpa = O=C(O)CCS

Experiments:
[1] = Inhibition of platelet aggregation
[2] = half life was measured on dogs; format: ADME, organism-based, Canis lupus familiaris; conditions: dog, in vivo
[3] = molecular target: T1, Integrin alpha-IIb/beta-3 (Homo sapiens, UniProt P05106+P08514); assay: Inhibition of [125]fibrinogen binding to alpha IIb beta-3 integrin; format: protein-complex assay
Target sequence in this assay (P05106 27-788 limits assumed): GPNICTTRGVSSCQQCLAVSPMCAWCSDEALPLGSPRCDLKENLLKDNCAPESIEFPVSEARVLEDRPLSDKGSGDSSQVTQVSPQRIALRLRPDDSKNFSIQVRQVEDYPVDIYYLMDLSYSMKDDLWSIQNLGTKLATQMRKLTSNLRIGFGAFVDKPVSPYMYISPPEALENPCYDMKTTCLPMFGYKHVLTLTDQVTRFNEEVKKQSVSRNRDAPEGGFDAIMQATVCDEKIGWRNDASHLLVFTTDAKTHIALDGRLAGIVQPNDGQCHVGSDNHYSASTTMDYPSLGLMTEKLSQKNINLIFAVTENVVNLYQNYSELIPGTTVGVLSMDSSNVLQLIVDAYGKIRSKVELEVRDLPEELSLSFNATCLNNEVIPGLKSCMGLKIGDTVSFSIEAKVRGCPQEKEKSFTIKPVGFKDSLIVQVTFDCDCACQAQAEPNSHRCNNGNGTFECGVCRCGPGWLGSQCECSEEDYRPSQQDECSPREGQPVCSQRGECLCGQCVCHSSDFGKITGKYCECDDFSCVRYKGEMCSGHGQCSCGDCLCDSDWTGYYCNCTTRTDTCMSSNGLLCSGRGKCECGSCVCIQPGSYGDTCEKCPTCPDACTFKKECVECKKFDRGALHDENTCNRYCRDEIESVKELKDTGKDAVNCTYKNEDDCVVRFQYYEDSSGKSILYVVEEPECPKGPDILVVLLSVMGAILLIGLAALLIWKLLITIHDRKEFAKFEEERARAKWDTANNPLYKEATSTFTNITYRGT
Target sequence in this assay (P08514 32-887 limits assumed): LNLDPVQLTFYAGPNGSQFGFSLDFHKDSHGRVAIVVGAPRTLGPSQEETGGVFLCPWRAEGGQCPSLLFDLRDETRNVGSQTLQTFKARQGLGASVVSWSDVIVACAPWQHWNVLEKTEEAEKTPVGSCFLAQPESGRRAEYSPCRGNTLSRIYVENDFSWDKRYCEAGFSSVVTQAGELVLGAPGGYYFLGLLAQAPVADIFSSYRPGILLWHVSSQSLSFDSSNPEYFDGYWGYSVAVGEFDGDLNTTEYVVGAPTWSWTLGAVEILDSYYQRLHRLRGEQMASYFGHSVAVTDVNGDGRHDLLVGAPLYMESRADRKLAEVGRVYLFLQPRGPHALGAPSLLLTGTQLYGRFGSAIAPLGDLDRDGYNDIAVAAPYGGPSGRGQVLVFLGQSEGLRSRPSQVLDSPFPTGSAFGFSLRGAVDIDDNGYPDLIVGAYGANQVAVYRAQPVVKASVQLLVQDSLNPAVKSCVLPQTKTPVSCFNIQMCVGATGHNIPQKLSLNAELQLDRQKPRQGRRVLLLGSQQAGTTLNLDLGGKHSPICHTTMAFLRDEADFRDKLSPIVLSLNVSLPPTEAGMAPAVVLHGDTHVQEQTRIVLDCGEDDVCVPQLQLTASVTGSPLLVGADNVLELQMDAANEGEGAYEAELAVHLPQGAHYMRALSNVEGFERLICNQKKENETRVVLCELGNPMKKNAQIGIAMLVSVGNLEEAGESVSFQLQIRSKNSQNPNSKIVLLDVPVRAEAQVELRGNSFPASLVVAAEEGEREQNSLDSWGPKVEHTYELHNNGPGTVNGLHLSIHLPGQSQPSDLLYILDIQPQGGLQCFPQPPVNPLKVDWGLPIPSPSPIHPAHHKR
Target sequence in this assay (P08514 891-1039 limits assumed): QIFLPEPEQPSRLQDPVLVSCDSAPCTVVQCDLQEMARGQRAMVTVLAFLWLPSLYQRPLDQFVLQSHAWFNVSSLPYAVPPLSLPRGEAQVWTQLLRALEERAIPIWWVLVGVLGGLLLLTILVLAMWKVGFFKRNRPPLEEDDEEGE

[4] = biological half-life was measured on dog; format: ADME, organism-based, Canis lupus familiaris; conditions: in vivo
[5] = molecular target: T1, Integrin alpha-IIb/beta-3; assay: Inhibition of fibrinogen binding to alpha IIb beta-3 integrin; format: protein-complex assay
Target sequence in this assay (P05106 27-788 limits assumed): as the sequence (P05106 27-788 limits assumed) above
Target sequence in this assay (P08514 32-887 limits assumed): as the sequence (P08514 32-887 limits assumed) above
Target sequence in this assay (P08514 891-1039 limits assumed): as the sequence (P08514 891-1039 limits assumed) above

[6] = In vitro inhibition of gel filtered platelet aggregation induced by ADP.
[7] = molecular target: T1, Integrin alpha-IIb/beta-3; assay: Inhibition of ex vivo maximal platelet aggregation in conscious dogs after oral administration of 4 mg/kg; conditions: Canis lupus familiaris; target entry is the homologue from another species; at 4 mg/kg
[8] = oral bioavailability was measured on rhesus monkey; format: ADME, organism-based, Macaca mulatta; conditions: in vivo
[9] = oral bioavailability was measured on rats; format: ADME, organism-based; conditions: rat, in vivo
Homo sapiens [10] = species: Homo sapiens; assay: half-life was measured on unactivated human platelets
[11] = Oral bioavailability in dog; format: ADME, organism-based, Canis lupus familiaris; conditions: in vivo
[12] = molecular target: T1, Integrin alpha-IIb/beta-3; assay: Inhibition of platelet aggregation after administration of 30 ug/kg iv bolus to dogs within first 1-15 min; format: functional, organism-based; conditions: Canis lupus familiaris; target entry is the homologue from another species
[13] = molecular target: T1, Integrin alpha-IIb/beta-3; assay: Dissociation constant for alpha IIb beta-3 integrin rested platelets; format: functional
Target sequence in this assay (P05106 27-788 limits assumed): as the sequence (P05106 27-788 limits assumed) above
Target sequence in this assay (P08514 32-887 limits assumed): as the sequence (P08514 32-887 limits assumed) above
Target sequence in this assay (P08514 891-1039 limits assumed): as the sequence (P08514 891-1039 limits assumed) above

[14] = molecular target: T1, Integrin alpha-IIb/beta-3; assay: Inhibition of platelet aggregation after administration of 0.1 mg/kg at 24 hr; conditions: Canis lupus familiaris
[15] = molecular target: T1, Integrin alpha-IIb/beta-3; assay: Inhibition of platelet aggregation after administration of 10 ug/kg iv to dogs at 8 hr; format: functional, organism-based; conditions: Canis lupus familiaris; target entry is the homologue from another species
[16] = molecular target: T1, Integrin alpha-IIb/beta-3; assay: Percent inhibition of gel filtered platelet aggregation induced by ADP; format: functional; conditions: concentration not given here
[17] = molecular target: T1, Integrin alpha-IIb/beta-3; assay: Inhibition of platelet aggregation after administration of 10 ug/kg iv to dogs within 1 min; format: functional, organism-based; conditions: Canis lupus familiaris; target entry is the homologue from another species
[18] = molecular target: T1, Integrin alpha-IIb/beta-3; assay: Inhibition of fibrinogen binding to activated platelets
Target sequence in this assay (P05106 27-788 limits assumed): as the sequence (P05106 27-788 limits assumed) above
Target sequence in this assay (P08514 32-887 limits assumed): as the sequence (P08514 32-887 limits assumed) above
Target sequence in this assay (P08514 891-1039 limits assumed): as the sequence (P08514 891-1039 limits assumed) above

[19] = molecular target: T1, Integrin alpha-IIb/beta-3; assay: Inhibition of fixed platelet aggregation; format: functional
Target sequence in this assay (P05106 27-788 limits assumed): as the sequence (P05106 27-788 limits assumed) above
Target sequence in this assay (P08514 32-887 limits assumed): as the sequence (P08514 32-887 limits assumed) above
Target sequence in this assay (P08514 891-1039 limits assumed): as the sequence (P08514 891-1039 limits assumed) above

[20] = oral bio availability was measured on dogs; format: ADME, organism-based, Canis lupus familiaris; conditions: dog, in vivo
[21] = molecular target: T1, Integrin alpha-IIb/beta-3; assay: Dissociation constant for [3H]-DMP728 binding to alphaIIb beta III integrin; format: protein-complex assay
Target sequence in this assay (P05106 27-788 limits assumed): as the sequence (P05106 27-788 limits assumed) above
Target sequence in this assay (P08514 32-887 limits assumed): as the sequence (P08514 32-887 limits assumed) above
Target sequence in this assay (P08514 891-1039 limits assumed): as the sequence (P08514 891-1039 limits assumed) above

[22] = oral bioavailability was measured on dogs and rats; format: ADME, organism-based; conditions: eutheria, in vivo
[23] = oral bioavailability was measured in dogs; format: ADME, organism-based, Canis lupus familiaris; conditions: dog, in vivo
[24] = molecular target: T1, Integrin alpha-IIb/beta-3; assay: Inhibition of platelet aggregation after oral administration of 3 mg/kg to guinea pigs within 1 hr; format: functional, organism-based; set-up: dose 3 mg/kg; conditions: Cavia porcellus; target entry is the homologue from another species; at 3 mg/kg
[25] = molecular target: T1, Integrin alpha-IIb/beta-3; assay: Inhibition of platelet aggregation after oral administration of 3 mg/kg to guinea pigs at 8 hr; format: functional, organism-based; set-up: dose 3 mg/kg; conditions: Cavia porcellus; target entry is the homologue from another species; at 3 mg/kg
[26] = molecular target: T1, Integrin alpha-IIb/beta-3; assay: Inhibition of platelet aggregation after 0.25 mg/kg/day dose over 4 days at trough plasma concentrations in dogs; format: functional, organism-based; conditions: Canis lupus familiaris, target entry is the homologue from another species
[27] = Half-life in humans; format: ADME, organism-based; conditions: human, in vivo
[28] = Bioavailability in humans; format: ADME, organism-based; conditions: human, in vivo
[29] = Inhibition of vitronectin receptor binding; set-up: species or system Homo sapiens
[30] = molecular target: T1, Integrin alpha-IIb/beta-3; assay: Inhibition of platelet aggregation after 10 ug/kg/day dose over 6 days in dogs; format: functional; conditions: Canis lupus familiaris; target entry is the homologue from another species
[31] = molecular target: T1, Integrin alpha-IIb/beta-3; assay: Inhibition of ex vivo platelet aggregation after oral administration of 0.5 mg/kg to cynomolgus monkeys at 2-8h; format: functional, organism-based; set-up: dose 0.5 mg/kg; conditions: at 0.5 mg/kg
[32] = molecular target: T1, Integrin alpha-IIb/beta-3; assay: Inhibition of fibrinogen binding to alpha IIb beta-3 integrin using thrombin inhibitor PPACK as anticoagulant; format: functional
[33] = biological half-life was measured on rhesus monkeys; format: ADME, organism-based, Macaca mulatta; conditions: rhesus monkey, in vivo
[34] = biological half-life was measured on dogs; format: ADME, organism-based, Canis lupus familiaris; conditions: dog, in vivo
[35] = half-life of compound in human; conditions: in vivo
[36] = Duration of action in dog at a dose of 1 mg/kg i.d.; format: ADME, organism-based, Canis lupus familiaris; set-up: dose 1 mg/kg, route intraduodenal; conditions: in vivo, other
[37] = molecular target: T1, Integrin alpha-IIb/beta-3; assay: Inhibition of alpha IIb beta III mediated platelet aggregation
[38] = The biological half life was measured on dog; format: ADME, organism-based, Canis lupus familiaris; conditions: in vivo
Homo sapiens [39] = species: Homo sapiens; assay: biological half-life was measured on unactivated human platelets
[40] = oral bioavailability was measured in rhesus monkeys; format: ADME, organism-based, Macaca mulatta; conditions: rhesus monkey, in vivo

Compound: O=C(NC[C@H](NS(=O)(=O)c1ccccc1)C(=O)O)c1ccc(N2CCNCC2)cc1
- pIC50 [1]: 7.77

Compound: O=C(O)C[C@H](NC(=O)[C@@H]1CCCN(C(=O)CCC2CCNCC2)C1)c1cccnc1 [ELAROFIBAN]
- half-life [2]: 1.42 h

Compound: CC(=O)N[C@H]1CSSC[C@@H](C(N)=O)NC(=O)[C@H](CC(=O)O)NC(=O)CNC(=O)[C@H](CCCN=C(N)N)N(C)C1=O (Ac-C[NMeR]GDC-NH2; disulfide 1-5)
- pIC50 [3]: 8.55
- half-life [4]: 1.1 h
- pIC50 [5]: 6.32

Compound: O=C(O)CCNC(=O)c1ccc2c(c1)C(=O)N(CCC1CCNCC1)C2
- pIC50 [6]: 7.60
- inhibition [7]: 90%

Compound: CCOC(=O)CCN1CC(=O)N(C)c2ccc(C#Cc3ccc(C(=N)NC(=O)OCC)cc3)cc2C1=O
- bioavailability [8]: 21%
- bioavailability [9]: 6%

Compound: O=C(NC[C@H](NS(=O)(=O)c1cccnc1)C(=O)O)c1ccc2c(c1)C(=O)N(CCC1CCNCC1)C2
- pIC50 [6]: 7.82

Compound: Cc1noc(C)c1S(=O)(=O)N[C@@H](CNC(=O)C[C@H]1CC(c2ccc(C(=N)N)cc2)=NO1)C(=O)O
- T1/2 (Homo sapiens [10]): 0.533 h

Compound: C[C@H](CC(=O)O)NC(=O)CN1CCC[C@@H](CCC2CCNCC2)C1=O
- bioavailability [11]: 16%
- inhibition [12]: > 90%
- pKd [13]: 6.19

Compound: Cc1ccc(S(=O)(=O)N[C@@H](CNC(=O)c2cc3n(n2)CCCN(CCC2CCNCC2)C3=O)C(=O)O)cc1
- inhibition [14]: 87%
- inhibition [15]: > 90%
- inhibition [16]: 66%
- inhibition [17]: 79%

Compound: CCN(CC(=O)N[C@@H](CC(=O)O)C(=O)N[C@@H](Cc1ccccc1)C(N)=O)C(=O)CCCC1CCNCC1
- pIC50 [18]: 7.55
- pIC50 [19]: 7.01

Compound: C#C[C@H](CC(=O)OCC)NC(=O)CCC(=O)Nc1ccc(C(=N)N)cc1 [XEMILOFIBAN]
- F [11]: 53%

Compound: CC[C@H]1NC(=O)c2cccc(c2)CNC(=O)[C@H](CC(=O)O)NC(=O)CNC(=O)[C@H](CCCN=C(N)N)N(C)C1=O (cyclo([NMeR]GD[3Amb][dAbu]))
- bioavailability [20]: 12%
- pKd [21]: 10.00
- pIC50 [5]: 8.64

Compound: COc1ccc(C[C@H](NC(=O)[C@H](CC(=O)O)NC(=O)CNC(=O)[C@@H](N)CCCNC(=N)N)C(N)=O)cc1 (H-RGDY(Me)-NH2)
- pIC50 [5]: 4.57

Compound: O=C(NC[C@H](NS(=O)(=O)c1ccccc1)C(=O)O)c1cc2sc(CCC3CCNCC3)cc2s1
- pIC50 [6]: 8.15

Compound: C[C@@H](COc1ccc(N2CCN(c3ccncc3)CC2)cc1)CC(=O)O
- bioavailability [22]: > 50%

Compound: O=C(CCCC1CCNCC1)NCC(=O)N[C@H](CCc1c[nH]c2ccccc12)C(=O)O
- bioavailability [23]: 4.9%

Compound: COC(=O)C[C@H]1C(=O)N(CC(=O)O)CCN1C(=O)CNC(=O)c1ccc(C(=N)N)cc1
- inhibition [24]: > 90%
- inhibition [25]: 40%

Compound: O=C(NC[C@H](NS(=O)(=O)c1ccccc1)C(=O)O)c1cc2cc(OCC3CCNCC3)ccc2[nH]1
- inhibition [26]: 95%

Compound: CCOC(=O)CCNC(=O)N[C@H]1CCN(c2ccc(C(=N)N)cc2)C1=O [ORBOFIBAN]
- bioavailability [11]: 28%
- half-life [4]: 18 h

Compound: CCOC(=O)CN1CCN(C[C@@H]2CN(c3ccc(C(N)=NC(=O)OC)cc3)C(=O)O2)CC1 [GANTOFIBAN]
- half-life [27]: 6 h
- bioavailability [28]: 40%

Compound: CN1C(=O)c2ccccc2SSc2ccccc2NC(=O)[C@H](CC(=O)O)NC(=O)CNC(=O)[C@@H]1CCCN=C(N)N [SKF-107260]
- pKi [29]: 8.46

Compound: CC(=O)N[C@@H](CCCN=C(N)N)C(=O)NCC(=O)N[C@@H](CC(=O)O)C(=O)N[C@H](C(N)=O)C(C)C (Ac-RGDV-NH2)
- pIC50 [5]: 4.57

Compound: CN1C(=O)CN(CCC(=O)O)C(=O)c2cc(C#Cc3ccc(C(=N)N)cc3)ccc21
- pIC50 [6]: 6.92

Compound: N=C(N)c1ccc(C(=O)Nc2ccc3c(c2)CCN(CC(=O)O)C3=O)cc1
- pIC50 [6]: 7.05

Compound: O=C(NC[C@H](NS(=O)(=O)c1cccnc1)C(=O)O)c1cc2cc(CCC3CCNCC3)sc2s1
- pIC50 [6]: 8.10
- inhibition [30]: > 80%

Compound: Cc1c(C(=O)NCCC(=O)O)s/c(=N\C(=O)c2ccc(C(=N)N3CCC4(CC3)OCCO4)cc2)n1C
- inhibition [31]: > 80%

Compound: N=C(N)NCCCC[C@@H]1NC(=O)CCSSC[C@@H](C(N)=O)NC(=O)[C@@H]2CCCN2C(=O)[C@H](Cc2c[nH]c3ccccc23)NC(=O)[C@H](CC(=O)O)NC(=O)CNC1=O [EPTIFIBATIDE] ([Mpa][hArg]GDWPC-NH2; disulfide 1-7)
- pIC50 [32]: 6.24

Compound: C[C@H](NC(=O)c1ccc(C(=N)N)cc1)C(=O)N1CCC(OCC(=O)O)CC1 [RO-44-3888]
- half-life [33]: 5.1 h
- half-life [34]: 11.4 h

Compound: CCCCS(=O)(=O)N[C@@H](Cc1ccc(OCCCCC2CCNCC2)cc1)C(=O)O [TIROFIBAN]
- half-life [35]: 0.5 h

Compound: CN1Cc2cc(C(=O)N3CCC(C4CCNCC4)CC3)ccc2N[C@@H](CC(=O)O)C1=O [LOTRAFIBAN]
- duration of action [36]: > 8 h
- pKd [37]: 8.73

Compound: N=C(N)c1ccc2oc(C(=O)NCCC(=O)NC[C@H](NS(=O)(=O)c3ccccc3)C(=O)O)cc2c1
- pIC50 [6]: 7.46

Compound: C[C@@]1(c2ccc(C(=N)N)cc2)NC(=O)N(CC(=O)NC(CC(=O)O)c2ccccc2)C1=O (some centres not stated)
- bioavailability [11]: 42%
- half-life [34]: 9.9 h

Compound: C#C[C@H](CC(=O)O)NC(=O)CCC(=O)Nc1ccc(C(=N)N)cc1
- bioavailability [11]: 53%
- half-life [38]: 6.5 h

Compound: CCCCS(=O)(=O)N[C@@H](CNC(=O)c1cc2n(n1)CCN(CCC1CCNCC1)C2=O)C(=O)O
- pKd [13]: 8.85

Compound: CCCCOC(=O)N[C@@H](CNC(=O)C[C@H]1CC(c2ccc(C(=N)N)cc2)=NO1)C(=O)O
- T1/2 (Homo sapiens [39]): 7 min

Compound: C#C[C@H](CC(=O)OCC)NC(=O)CN1CCc2ccc(N3CCNCC3)cc2C1=O
- bioavailability [23]: > 17%
- bioavailability [40]: 32%
